From ChEMBL document CHEMBL1155271, “Synthesis, crystal structures and antibacterial activity studies of aza-derivatives of phytoalexin from cotton plant--gossypol” (2009)
Converted amounts (≈) assume the structure as drawn. The source made the active and inactive calls. No cut-off for these calls is given here.

How the values were obtained:
Format in all cases: functional
Bacillus subtilis [1] = assay: Antimicrobial activity against Bacillus subtilis ATCC 6633 after 18 hrs by twofold dilution technique; details: ATCC 6633, 18 h
Micrococcus luteus [2] = assay: Antimicrobial activity against Micrococcus luteus ATCC 10240 at 400 ug after 18 hrs by disk diffusion method; details: ATCC 10240, 18 h, read-out: DIZ
Bacillus subtilis [3] = assay: Antimicrobial activity against Bacillus subtilis ATCC 6633 at 400 ug after 18 hrs by disk diffusion method; details: ATCC 6633, 18 h, read-out: DIZ
Staphylococcus aureus [4] = assay: Antimicrobial activity against Methicillin susceptible Staphylococcus aureus 207/7 by twofold dilution technique
Bacillus cereus [5] = assay: Antimicrobial activity against Bacillus cereus ATCC 11778 at 400 ug after 18 hrs by disk diffusion method; details: ATCC 11778, 18 h, read-out: DIZ
Staphylococcus aureus [6] = assay: Antimicrobial activity against Methicillin susceptible Staphylococcus aureus 239/7 by twofold dilution technique
Staphylococcus aureus [7] = assay: Antimicrobial activity against Staphylococcus aureus NCTC 4163 after 18 hrs by twofold dilution technique; details: NCTC 4163, 18 h
Staphylococcus aureus [8] = assay: Antimicrobial activity against methicillin-resistant Staphylococcus aureus 141/6 by twofold dilution technique
Staphylococcus aureus [9] = assay: Antimicrobial activity against Staphylococcus aureus ATCC 25923 after 18 hrs by twofold dilution technique; details: ATCC 25923, 18 h
Staphylococcus aureus [10] = assay: Antimicrobial activity against methicillin-resistant Staphylococcus aureus 136/6 by twofold dilution technique
Staphylococcus aureus [11] = assay: Antimicrobial activity against Methicillin susceptible Staphylococcus aureus 242/7 by twofold dilution technique
Bacillus cereus [12] = assay: Antimicrobial activity against Bacillus cereus ATCC 11778 after 18 hrs by twofold dilution technique; details: ATCC 11778, 18 h
Staphylococcus aureus [13] = assay: Antimicrobial activity against Staphylococcus aureus ATCC 6538 after 18 hrs by twofold dilution technique; details: ATCC 6538, 18 h
Staphylococcus aureus [14] = assay: Antimicrobial activity against Methicillin susceptible Staphylococcus aureus 237/7 by twofold dilution technique
Staphylococcus aureus [15] = assay: Antimicrobial activity against Methicillin susceptible Staphylococcus aureus 238/7 by twofold dilution technique
Staphylococcus aureus [16] = assay: Antimicrobial activity against methicillin-resistant Staphylococcus aureus 146/6 by twofold dilution technique
Staphylococcus aureus [17] = assay: Antimicrobial activity against methicillin-resistant Staphylococcus aureus 143/6 by twofold dilution technique
Staphylococcus aureus [18] = assay: Antimicrobial activity against methicillin-resistant Staphylococcus aureus 200/7 by twofold dilution technique
Staphylococcus aureus [19] = assay: Antimicrobial activity against methicillin-resistant Staphylococcus aureus 218/7 by twofold dilution technique
Staphylococcus aureus [20] = assay: Antimicrobial activity against methicillin-resistant Staphylococcus aureus 236/7 by twofold dilution technique
Micrococcus luteus [21] = assay: Antimicrobial activity against Micrococcus luteus ATCC 9341 at 400 ug after 18 hrs by disk diffusion method
Staphylococcus aureus [22] = assay: Antimicrobial activity against Staphylococcus aureus ATCC 25923 at 400 ug after 18 hrs by disk diffusion method; details: ATCC 25923, 18 h, read-out: DIZ
Staphylococcus aureus [23] = assay: Antimicrobial activity against Staphylococcus aureus ATCC 29213 after 18 hrs by twofold dilution technique; details: ATCC 29213, 18 h
Staphylococcus aureus [24] = assay: Antimicrobial activity against methicillin-resistant Staphylococcus aureus 144/6 by twofold dilution technique
Enterococcus hirae [25] = assay: Antimicrobial activity against Enterococcus hirae ATCC 10541 after 18 hrs by twofold dilution technique; details: ATCC 10541, 18 h
Staphylococcus aureus [26] = assay: Antimicrobial activity against Methicillin susceptible Staphylococcus aureus 208/7 by twofold dilution technique
Micrococcus luteus [27] = assay: Antimicrobial activity against Micrococcus luteus ATCC 10240 by twofold dilution technique
Enterococcus hirae [28] = assay: Antimicrobial activity against Enterococcus hirae ATCC 10541 at 400 ug after 18 hrs by disk diffusion method; details: ATCC 10541, 18 h, read-out: DIZ
[29] = test system: Staphylococcus epidermidis; assay: Antimicrobial activity against Staphylococcus epidermidis ATCC 12228 at 400 ug after 18 hrs by disk diffusion method; details: ATCC 12228, 18 h, read-out: DIZ
[30] = test system: Staphylococcus epidermidis; assay: Antimicrobial activity against Staphylococcus epidermidis ATCC 12228 by twofold dilution technique
Micrococcus luteus [31] = assay: Antimicrobial activity against Micrococcus luteus ATCC 9341 after 18 hrs by twofold dilution technique; details: ATCC 9341, 18 h
Staphylococcus aureus [32] = assay: Antimicrobial activity against Staphylococcus aureus ATCC 29213 at 400 ug after 18 hrs by disk diffusion method; details: ATCC 29213, 18 h, read-out: DIZ
Staphylococcus aureus [33] = assay: Antimicrobial activity against methicillin-resistant Staphylococcus aureus 217/7 by twofold dilution technique
Staphylococcus aureus [34] = assay: Antimicrobial activity against Methicillin susceptible Staphylococcus aureus 213/7 by twofold dilution technique
Staphylococcus aureus [35] = assay: Antimicrobial activity against Staphylococcus aureus NCTC 4163 at 400 ug after 18 hrs by disk diffusion method; details: NCTC 4163, 18 h, read-out: DIZ
Staphylococcus aureus [36] = assay: Antimicrobial activity against Methicillin susceptible Staphylococcus aureus 206/7 by twofold dilution technique
Staphylococcus aureus [37] = assay: Antimicrobial activity against methicillin-resistant Staphylococcus aureus 140/6 by twofold dilution technique
Staphylococcus aureus [38] = assay: Antimicrobial activity against Staphylococcus aureus ATCC 6538 at 400 ug after 18 hrs by disk diffusion method; details: ATCC 6538, 18 h, read-out: DIZ
Staphylococcus aureus [39] = assay: Antimicrobial activity against Methicillin susceptible Staphylococcus aureus 243/7 by twofold dilution technique
Staphylococcus aureus [40] = assay: Antimicrobial activity against Methicillin susceptible Staphylococcus aureus 212/7 by twofold dilution technique

| Structure (SMILES) | MIC (Bacillus subtilis [1]) | zone of inhibition at 400 µg/disc (Micrococcus luteus [2]) | zone of inhibition at 400 µg/disc (Bacillus subtilis [3]) | MIC (Staphylococcus aureus [4]) | zone of inhibition at 400 µg/disc (Bacillus cereus [5]) | MIC (Staphylococcus aureus [6]) | MIC (Staphylococcus aureus [7]) | MIC (Staphylococcus aureus [8]) | MIC (Staphylococcus aureus [9]) | MIC (Staphylococcus aureus [10]) | MIC (Staphylococcus aureus [11]) | MIC (Bacillus cereus [12]) | MIC (Staphylococcus aureus [13]) | MIC (Staphylococcus aureus [14]) | MIC (Staphylococcus aureus [15]) | MIC (Staphylococcus aureus [16]) | MIC (Staphylococcus aureus [17]) | MIC (Staphylococcus aureus [18]) | MIC (Staphylococcus aureus [19]) | MIC (Staphylococcus aureus [20]) | further results |
| --- | --- | --- | --- | --- | --- | --- | --- | --- | --- | --- | --- | --- | --- | --- | --- | --- | --- | --- | --- | --- | --- |
| Cc1cc2c(c(O)c1-c1c(C)cc3c(c1O)/C(=C/NCCc1cccs1)C(=O)C(O)=C3C(C)C)/C(=C/NCCc1cccs1)C(=O)C(O)=C2C(C)C | 100 µg/mL (≈ 136 µM) | 19 mm | 16 mm | 50 µg/mL (≈ 67.8 µM) | 15 mm | 50 µg/mL (≈ 67.8 µM) | 50 µg/mL (≈ 67.8 µM) | 50 µg/mL (≈ 67.8 µM) | 25 µg/mL (≈ 33.9 µM) | 50 µg/mL (≈ 67.8 µM) | 12.5 µg/mL (≈ 17 µM) | 50 µg/mL (≈ 67.8 µM) | 25 µg/mL (≈ 33.9 µM) | 50 µg/mL (≈ 67.8 µM) | 50 µg/mL (≈ 67.8 µM) | 50 µg/mL (≈ 67.8 µM) | 50 µg/mL (≈ 67.8 µM) | 50 µg/mL (≈ 67.8 µM) | 50 µg/mL (≈ 67.8 µM) | 50 µg/mL (≈ 67.8 µM) | zone of inhibition at 400 µg/disc (Micrococcus luteus [21]; ATCC 9341, 18 h, read-out: DIZ): 12 mm; zone of inhibition at 400 µg/disc (Staphylococcus aureus [22]): 18 mm; MIC (Staphylococcus aureus [23]): 25 µg/mL (≈ 33.9 µM); MIC (Staphylococcus aureus [24]): 50 µg/mL (≈ 67.8 µM); MIC (Enterococcus hirae [25]): 50 µg/mL (≈ 67.8 µM); MIC (Staphylococcus aureus [26]): 50 µg/mL (≈ 67.8 µM); MIC (Micrococcus luteus [27]): 50 µg/mL (≈ 67.8 µM); zone of inhibition at 400 µg/disc (Enterococcus hirae [28]): 14 mm; zone of inhibition at 400 µg/disc [29]: 21 mm; MIC [30]: 100 µg/mL (≈ 136 µM); MIC (Micrococcus luteus [31]): 50 µg/mL (≈ 67.8 µM); zone of inhibition at 400 µg/disc (Staphylococcus aureus [32]): 18 mm; MIC (Staphylococcus aureus [33]): 100 µg/mL (≈ 136 µM); MIC (Staphylococcus aureus [34]): 25 µg/mL (≈ 33.9 µM); zone of inhibition at 400 µg/disc (Staphylococcus aureus [35]): 18 mm; MIC (Staphylococcus aureus [36]): 25 µg/mL (≈ 33.9 µM); MIC (Staphylococcus aureus [37]): 50 µg/mL (≈ 67.8 µM); zone of inhibition at 400 µg/disc (Staphylococcus aureus [38]): 17 mm; MIC (Staphylococcus aureus [39]): 50 µg/mL (≈ 67.8 µM); MIC (Staphylococcus aureus [40]): 25 µg/mL (≈ 33.9 µM) |
| COCCN/N=C/c1c(O)c(O)c(C(C)C)c2cc(C)c(-c3c(C)cc4c(C(C)C)c(O)c(O)c(/C=N/NCCOC)c4c3O)c(O)c12 | 400 µg/mL (≈ 604 µM) | 14 mm | 13 mm | 50 µg/mL (≈ 75.4 µM) | 13 mm | 100 µg/mL (≈ 151 µM) | 100 µg/mL (≈ 151 µM) | 100 µg/mL (≈ 151 µM) | 50 µg/mL (≈ 75.4 µM) | 100 µg/mL (≈ 151 µM) | 50 µg/mL (≈ 75.4 µM) | 50 µg/mL (≈ 75.4 µM) | 50 µg/mL (≈ 75.4 µM) | 100 µg/mL (≈ 151 µM) | 50 µg/mL (≈ 75.4 µM) | 100 µg/mL (≈ 151 µM) | 50 µg/mL (≈ 75.4 µM) | 50 µg/mL (≈ 75.4 µM) | 100 µg/mL (≈ 151 µM) | 100 µg/mL (≈ 151 µM) | diameter of the inhibition zone (DIZ) (Micrococcus luteus [21]): inactive; zone of inhibition at 400 µg/disc (Staphylococcus aureus [22]): 15 mm; MIC (Staphylococcus aureus [23]): 50 µg/mL (≈ 75.4 µM); MIC (Staphylococcus aureus [24]): 100 µg/mL (≈ 151 µM); MIC (Enterococcus hirae [25]): 100 µg/mL (≈ 151 µM); MIC (Staphylococcus aureus [26]): 50 µg/mL (≈ 75.4 µM); MIC (Micrococcus luteus [27]): 100 µg/mL (≈ 151 µM); zone of inhibition at 400 µg/disc (Enterococcus hirae [28]): 11 mm; zone of inhibition at 400 µg/disc [29]: 15 mm; MIC [30]: 400 µg/mL (≈ 604 µM); MIC (Micrococcus luteus [31]): 50 µg/mL (≈ 75.4 µM); zone of inhibition at 400 µg/disc (Staphylococcus aureus [32]): 14 mm; MIC (Staphylococcus aureus [33]): 100 µg/mL (≈ 151 µM); MIC (Staphylococcus aureus [34]): 50 µg/mL (≈ 75.4 µM); zone of inhibition at 400 µg/disc (Staphylococcus aureus [35]): 14 mm; MIC (Staphylococcus aureus [36]): 50 µg/mL (≈ 75.4 µM); MIC (Staphylococcus aureus [37]): 50 µg/mL (≈ 75.4 µM); zone of inhibition at 400 µg/disc (Staphylococcus aureus [38]): 13 mm; MIC (Staphylococcus aureus [39]): 100 µg/mL (≈ 151 µM); MIC (Staphylococcus aureus [40]): 100 µg/mL (≈ 151 µM) |
